Measured values as given in PMC6009871, “Anion inhibition studies of a beta carbonic anhydrase from the malaria mosquito Anopheles gambiae” (Journal of Enzyme Inhibition and Medicinal Chemistry, 2018).

Each compound was assayed against T1, AgaCA (Anopheles gambiae, UniProt Q5TU56) (assay: biochemical). Settings: not given.
T1 construct: gene 1272966; full-length beta-CA, C-terminal thrombin site and His6 tag (tag removed by thrombin), baculovirus/Sf9
T1 sequence (Q5TU56 1-255): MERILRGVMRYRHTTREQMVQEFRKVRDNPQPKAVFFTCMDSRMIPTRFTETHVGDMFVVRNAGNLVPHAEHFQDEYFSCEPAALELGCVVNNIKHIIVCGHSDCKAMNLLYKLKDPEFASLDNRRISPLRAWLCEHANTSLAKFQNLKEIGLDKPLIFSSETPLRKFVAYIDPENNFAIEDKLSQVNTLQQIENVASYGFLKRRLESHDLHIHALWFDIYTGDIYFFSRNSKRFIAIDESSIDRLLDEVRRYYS

SMILES	Ki
O=P(O)(O)OP(=O)(O)O [P2O7^4−]	8.52 mM
N#CS [SCN^−]	6.41 mM
O=S(=O)(O)O [SO4^2−]	9.03 mM

Same assay, conditions: read-out: AgaCA^c

SMILES	Ki
N#CO [CNO^−]	9.46 mM
S=C(S)S [CS3^2−]	8.19 mM
Cl [Cl^−]	8.74 mM
CCN(CC)C(=S)S [Et2NCS2^−]	0.65 mM
F [F^−]	9.42 mM
NS(N)(=O)=O [H2NSO2NH2]	0.054 mM
S [HS^−]	25.1 mM
O=NO [NO2^−]	4.55 mM
O=[N+]([O-])O [NO3^−]	6.5 mM
OB(O)c1ccccc1 [Ph-B(OH)2]	0.047 mM
N#C[SeH] [SeCN^−]	8.68 mM
O=[Se](=O)(O)O [SeO4^2−]	9.41 mM
[O]=[Sn]([OH])[OH] [SnO3^2−]	1.8 mM
O=[Te](=O)(O)O [TeO4^2−]	4.96 mM
[O]=[V]([OH])([OH])[O][V](=[O])([OH])[OH] [V2O7^4−]	7.98 mM

Same assay, conditions: read-out: KI [mM]^e / hCA I^a

SMILES	Ki
NS(=O)(=O)O [H2NSO3H]	0.021 mM
